Reference: patent US4185116A, “L- and DL- Phenylglycines to treat diseases or conditions attributable to reduced carbohydrate metabolism” (priority 1976, dated 1980)
Counter-ions that a name gives are not always drawn.

How the values were obtained:
[1] = tested on: pyruvate oxidation by diaphragm tissue from fat-fed rats; experiment: Pyruvate oxidation by diaphragm tissue from fat-fed rats (14C-pyruvate into CO2, in vitro); assay type: cell-based, rat; conditions: for activation at 500 µM: concentration of 0.5 mM, read-out: % Stimulation (of pyruvate oxidation)
Procedure: The compounds of formula (I) were tested for their ability to increase pyruvate oxidation as follows:
Diaphragm tissue is obtained from rats fed on a high fat diet similar to "Diet B" described by Zaragoza and Felber, Horm, Metab. Res., 2, 323 (1970). Pyruvate oxidation by such tissue is assessed by measurement of the rate of incorporation of carbon-14 from carbon-14-labelled pyruvate into carbon dioxide in vitro, as described by Bringolf, Eur. Jour. Biochem., 26, 360 (1972). The rate of pyruvate oxidation is depressed by 50-75% compared with that by diaphragm tissue from rats fed on a normal diet. […] The threshold concentration for such stimulation is about 0.25 millimolar and maximum stimulation of 170% is achieved at concentrations of 4 millimolar and above.

[2] = tested on: pyruvate dehydrogenase enzyme; experiment: Proportion of active pyruvate dehydrogenase (PDHa/PDHt) in hearts of fat-fed rats after treatment in vivo; set-up: species or system rat; conditions: heart; for PDHa/PDHt Ratio, Compound: 0.6 millimoles/kg.
Procedure: The total amount of the enzyme present (PDHt) and the amount which is present in the active form (PDHa) are assessed by a method similar to that described by Taylor et al., Jour. […] The fat-feeding process is found to depress the ratio PDHa/PDHt from a normal value of about 0.7 to a value in the range from 0.05 to 0.2. Treatment of fat-fed rats with L(+)-2-(4-hydroxyphenyl)glycine, either parenterally or orally, increases this ratio in a dose-dependent manner, the threshold doses for this effect being 0.05 millimole/kg. by intravenous injection and in the range 0.1 to 0.2 millimole/kg. by subcutaneous injection or by oral administration. The ratio is increased to a value in the range 0.8-1.0 (i.e., above that for rats on normal diet) by doses of 0.6 millimole/kg. and above.
The increase in the PDHa/PDHt ratio effected by other compounds of formula (I) at a dose level of 0.6 millimoles/kg. is shown in the following Table: […]

[3] = tested on: glucose oxidation by isolated hearts from starved rats; experiment: Glucose oxidation by isolated perfused hearts from starved rats (14C-glucose into CO2); assay type: cell-based; conditions: isolated starved-rat heart
Procedure: The rate of glucose oxidation by isolated hearts from starved rats is measured in a recirculating oxygenated perfusion system, by measuring the rate of incorporation of carbon-14 from carbon-14-labelled glucose into carbon dioxide using a method similar to those described by Morgan et al., Jour. […] The perfusate contains glucose, palmitate, insulin and bovine serum albumen.

[4] = tested on: heart of anesthetized beagle dogs; experiment: Myocardial blood flow and metabolism in fasted, closed-chest, anesthetized, electrically paced beagle dogs; assay type: in vivo, dog
Procedure: The ability of compounds of formula (I) to reduce oxygen demand and affect the relative utilization of carbohydrate and lipid metabolites in the heart has been assessed by measuring the effect of the compounds on myocardial blood flow and metabolism in fasted, closed-chest, anesthetized beagle dogs, with cardiac catherization to enable simultaneous sampling of coronary sinus and arterial blood to be carried out. Coronary sinus blood flow is measured by the hydrogen gas clearance technique described by Aukland et al., Circulation Res., 14, 164 (1964). The heart is paced electrically at 155 beats/min. and recordings of hemodynamic parameters (blood pressure, left ventricular pressure and the first derivative of the latter) are made continuously. Control measurements of coronary blood flow are made and samples of blood taken at 40 minute intervals, both in an untreated animal and in the same animal dosed with an infusion of isoprenaline ([…].), which both stimulates cardiac contraction and increases plasma free fatty acid levels. The compound of formula (I) is then administered intravenously and measurements are made and samples taken again, 40 minutes and 90 minutes later. The blood samples from the artery and coronary sinus are analyzed for oxyhemoglobin, pyruvate and free fatty acid (FFA) content, differences between those of the arterial and coronary sinus blood, when multiplied by coronary blood flow, being a measure of oxygen consumption, pyruvate uptake and FFA uptake by the myocardium respectively.

[5] = tested on: rats in which diabetes has been induced by treatment with streptozotocin; experiment: Blood glucose levels in streptozotocin-diabetic rats; assay type: in vivo, rat
Procedure: The ability of compounds of formula (I) to decrease blood glucose levels has been assessed by measuring their effect on blood glucose levels in rats in which diabetes has been induced by treatment with streptozotocin (85 mg/kg.). Four days after such treatment, a number of rats are given 1 millimole/kg of the compound by intraperitoneal injection and a similar number are given placebo. The doses are repeated after a further 24 hours and 48 hours. Blood samples are taken from a tail vein immediately before each dosage (which is 2 hours after removal of the animals from food) and 1, 2 and 3 hours after the third dose.

[6] = 0.02 to 0.1 millimole/kg. intravenously

NC(C(=O)O)c1ccc(O)cc1 (racemic) [DL (racemic)-2-(4-hydroxyphenyl)glycine]
effect on pyruvate oxidation relative to the L(+)-isomer [1]: approximately half that of the L(+)-isomer
effect on PDHa/PDHt ratio relative to the L(+)-isomer ([2]; same dose levels): only half, or less than half, the effect of the L(+)-isomer

NC(C(=O)[O-])c1ccc(O)cc1.[Na+] (racemic) [DL-2-(4-hydroxyphenyl)glycine, sodium salt]
effect on rate of glucose oxidation (predicted, 'will be') [3]: significantly increased

CC(C)CCOC(=O)[C@@H](N)c1ccc(O)cc1 [3-Methylbutyl L(+)-2-(4-hydroxyphenyl)glycinate]
activation at 500 µM ([1]; Rattus norvegicus): 32%
PDHa/PDHt Ratio, Compound ([2]; s.c. (subcutaneous)): 0.51
effects on myocardial pyruvate uptake, blood flow, oxygen consumption and FFA uptake (predicted, 'will be found') [4]: effects similar to L(+)-2-(4-hydroxyphenyl)glycine

Br.COc1ccc([C@H](N)C(=O)OCCC(C)C)cc1 [3-methylbutyl L(+)-2-(4-methoxyphenyl)glycinate hydrobromide]
effect on PDHa/PDHt ratio (predicted, 'will be') [2]: significantly increased

N[C@@H](C(=O)O)c1ccc(O)cc1 [D(-)-2-(4-hydroxyphenyl)glycine, reference compound]
effect on pyruvate oxidation ([1]; concentrations up to 4 mM): no significant effect
effect on rate of glucose oxidation ([3]; 2 millimolar in perfusate): no significant effect
effect on PDHa/PDHt ratio ([2]; dose levels up to 1.2 millimole/kg.): very little effect

CC(C)OC(=O)[C@@H](N)c1ccc(O)cc1 [Isopropyl L(+)-2-(4-hydroxyphenyl)glycinate]
activation at 500 µM ([1]; Rattus norvegicus): 34%

NC(=O)[C@@H](N)c1ccc(O)cc1 [L(+)-2-(4-hydroxyphenyl)glycinamide]
activation at 500 µM ([1]; Rattus norvegicus): 51%
effect on rate of glucose oxidation (predicted, 'will be') [3]: significantly increased
PDHa/PDHt Ratio, Compound ([2]; p.o. (oral)): 0.91
PDHa/PDHt Ratio, Compound ([2]; s.c. (subcutaneous)): 0.93
effects on myocardial pyruvate uptake, blood flow, oxygen consumption and FFA uptake (predicted, 'will be found') [4]: effects similar to L(+)-2-(4-hydroxyphenyl)glycine

N[C@H](C(=O)O)c1ccc(O)cc1 [L(+)-2-(4-hydroxyphenyl)glycine]
Emax ([1]; Rattus norvegicus, at concentrations of 4 millimolar and above, read-out: maximum stimulation of pyruvate oxidation): 170%
minimal effective concentration ([1]; Rattus norvegicus, in vitro, read-out: threshold concentration for stimulation of pyruvate oxidation): ~250 µM
rate of glucose oxidation ([3]; 2 millimolar in perfusate, normal rate 1.27+ 0.32, mean of 9 observations): 4.77 µmol/h
PDHa/PDHt ratio ([2]; doses of 0.6 millimole/kg. and above, fat-fed untreated 0.05 to 0.2, normal diet about 0.7): 0.8-1.0
threshold dose for increase of PDHa/PDHt ratio ([2]; intravenous injection): 0.05 millimole/kg.
effect on hemodynamic parameters (blood pressure, left ventricular pressure and its first derivative) [4, 6]: no effect
effect on myocardial FFA uptake [4, 6]: generally decreased
increase of myocardial blood flow [4, 6]: up to 150%
period of increased myocardial pyruvate uptake after dosing [4, 6]: at least 90 minutes
decrease of myocardial oxygen consumption ([4]; 0.02 to 0.1 millimole/kg. intravenously, in the presence of isoprenaline): about 20%
increase of myocardial pyruvate uptake ([4]; 0.02 to 0.1 millimole/kg. intravenously, presence and absence of isoprenaline): at least 2 fold
blood glucose level after 2 days of treatment (immediately before the third dose) ([5]; 1 millimole/kg intraperitoneal daily, declined from 378± 8, placebo 383± 10, averages for 8 animals): 356± 4 mg/100 ml.
blood glucose level 2 hours after the third dose (minimum value) ([5]; 1 millimole/kg intraperitoneal, placebo 385± 7, averages for 8 animals): 313± 7 mg/100 ml.

COc1ccc([C@H](N)C(N)=O)cc1 [L(+)-2-(4-methoxyphenyl)glycinamide]
effect on pyruvate oxidation (predicted, 'will be found') [1]: stimulate pyruvate oxidation
effect on PDHa/PDHt ratio (predicted, 'will be') [2]: significantly increased

COc1ccc([C@H](N)C(=O)O)cc1 [L(+)-2-(4-methoxyphenyl)glycine, calcium salt]
effects on myocardial pyruvate uptake, blood flow, oxygen consumption and FFA uptake (predicted, 'will be found') [4]: effects similar to L(+)-2-(4-hydroxyphenyl)glycine

COc1ccc([C@H](N)C(=O)[O-])cc1.[K+] [L(+)-2-(4-methoxyphenyl)glycine, potassium salt]
effect on PDHa/PDHt ratio (predicted, 'will be') [2]: significantly increased

COc1ccc([C@H](N)C(=O)O)cc1 [L(+)-2-(4-methoxyphenyl)glycine]
activation at 500 µM ([1]; Rattus norvegicus): 79%
effect on rate of glucose oxidation (predicted, 'will be') [3]: significantly increased

COC(=O)[C@@H](N)c1ccc(O)cc1 [Methyl L(+)-2-(4-hydroxyphenyl)glycinate]
activation at 500 µM ([1]; Rattus norvegicus): 89%
PDHa/PDHt Ratio, Compound ([2]; p.o. (oral)): 0.42
PDHa/PDHt Ratio, Compound ([2]; s.c. (subcutaneous)): 0.69

CCOC(=O)[C@@H](N)c1ccc(OC)cc1 [ethyl L(+)-2-(4-methoxyphenyl)glycinate]
effect on pyruvate oxidation (predicted, 'will be found') [1]: stimulate pyruvate oxidation

COC(=O)[C@@H](N)c1ccc(O)cc1.Cl [methyl L(+)-2-(4-hydroxyphenyl)glycinate hydrochloride]
effects on myocardial pyruvate uptake, blood flow, oxygen consumption and FFA uptake (predicted, 'will be found') [4]: effects similar to L(+)-2-(4-hydroxyphenyl)glycine

COC(=O)[C@@H](N)c1ccc(OC)cc1 [methyl L(+)-2-(4-methoxyphenyl)glycinate gluconate]
effect on PDHa/PDHt ratio (predicted, 'will be') [2]: significantly increased

CCCCOC(=O)[C@@H](N)c1ccc(OC)cc1 [n-butyl L(+)-2-(4-methoxyphenyl)glycinate]
effect on pyruvate oxidation (predicted, 'will be found') [1]: stimulate pyruvate oxidation

CCCOC(=O)[C@@H](N)c1ccc(O)cc1.Cl [n-propyl L(+)-2-(4-hydroxyphenyl)glycinate hydrochloride]
effect on rate of glucose oxidation (predicted, 'will be') [3]: significantly increased
